# Earlier results, collected in US20250319042A1, “SKIN CARE PRODUCT WITH LAPACHOL AND METHOD FOR USE THEREOF” (priority 2024, published 2025).
# Columns and labels:
# MMP-8 = details: in cell culture
# MMP-9 = details: in cell culture
# [1] = system: matrix metalloproteinase 3 (MMP-3); details: in cell culture
# prostaglandin E2 (PGE2) = details: in cell culture
# [2] = system: tumor necrosis factor alpha (TNF-a); details: in cell culture
inhibition of MMP-3 [1],solubility,SMILES,inhibition of MMP-8 (MMP-8),inhibition of MMP-9 (MMP-9),inhibition of PGE2 (prostaglandin E2 (PGE2)),inhibition of TNF-a [2]
inhibits,–,CC1(C)CCC2=C(O1)c1ccccc1C(=O)C2=O [beta-lapachone],inhibits,inhibits,inhibits,inhibits
–,primarily oil-soluble,"CC(C)=CCC1=C(O)C(=O)c2ccccc2C1=O [lapachol, 2-hydroxy-3-(3-methyl-2-butenyl)-1,4-naphtoquinone]",–,–,–,–
